# Laboratory results from patent publication US4226877A, “Pyrazoles active in the central nervous system” (Abbott Laboratories, priority 1979, dated 1980).
# Where two headings read alike, the source gives them in different places.
# What was measured:
# [1] = tested on: brain level of homovanillic acid (HVA); test: Effect of drug compounds on brain level of homovanillic acid (HVA) in rats; type: in vivo, male Long Evans rats; conditions: brains (minus cerebella) removed two or three hours later, control = 1
# Protocol: In testing for the effectiveness of the present drug compounds on the brain level of homovanillic acid (HVA), the drugs were administered intraperitoneally to male Long Evans rats (Simonsen) usually as aqueous solutions but in certain cases as suspensions in 0.5% methocel in 0.9% saline. The standard testing dose was […] body weight. The test and control groups consisted of 3-5 and 5 animals, respectively. The analyses were performed on brains (minus cerebella) removed two or three hours later. In the analyses, standard extraction and fluorimetric methods were used.
# Antipsychotic agents increase the synthesis and release of dopamine which is converted to HVA. The HVA level is therefore a measure of dopamine release.
# [2] = tested on: methamphetamine-induced hyperactivity; test: Rat methamphetamine antagonism test; type: in vivo, Male, Long-Evans, black hooded rats; conditions: for ED50: Rattus norvegicus; for % Change From Placebo Control: methamphetamine 1 mg/kg i.p. one hour later
# Protocol: The second test for identifying potential antipsychotic properties was the rat methamphetamine antagonism test.
# […] Three rats were tested at each dose level. Placebo controls received a volume dose of the 0.5% carboxymethylcellulose vehicle. One hour after drug administration, the animals received methamphetamine at an intraperitoneal dose of 1 mg/kg and were placed in individual test chambers equipped with photocells (Lehigh Valley, Model 1497). Antagonism of methamphetamine-induced hyperactivity was recorded as digital counts received from the photocells at one and two hour intervals.
# The drug data were compared to placebo control values to identify statistically significant differences using a one-way analysis of variance computer program. ED50's were calculated by the method of Litchfield and Wilcoxin (J. Pharmacol. Exper. Therap.: 96:99, 1949).
# [3] = Dose 0.15 (moles/kg body weight), intraperitoneal
# [4] = oral, calculated by the method of Litchfield and Wilcoxin, read-out: ED50
SMILES,"HVA Level; Compound : Control Ratio ([1]; Dose 0.03, intraperitoneal)",ED50 ([2]; po),% Change From Placebo Control ([2]; oral dose 5 mg/kg),% Change From Placebo Control ([2]; oral dose 10 mg/kg),% Change From Placebo Control ([2]; oral dose 20 mg/kg),"HVA Level; Compound : Control Ratio [1, 3]","ED50 [2, 4]",% Change From Placebo Control ([2]; oral dose 80 mg/kg)
"CN(C)CCCN1c2ccccc2Sc2ccc(Cl)cc21 [Chlorpromazine, reference compound]",3.9,15 mg/kg,+10%,-40%,-74%,–,–,–
"CCN1CCCC1CNC(=O)c1c(C)nn(C)c1OC (centres unmarked) [I, N-[(1-ethyl-2-pyrrolidinyl)methyl]-5-methoxy-1,3-dimethylpyrazole-4-carboxamide]",–,–,-9%,–,-35%,4.0,44 mg/kg,-60%
"CCN1CCCC1CNC(=O)c1c(C)nn(C(C)C)c1OC (centres unmarked) [II, N-[(1-Ethyl-2-pyrrolidinyl)methyl]-1-isopropyl-5-methoxy-3-methylpyrazole-4-carboxamide]",–,–,-16%,–,-13%,1.8,> 80 mg/kg,-16%
"CCN1CCCC1CNC(=O)c1c(C(C)C)nn(C)c1OC (centres unmarked) [III, N[(1-Ethyl-2-pyrrolidinyl)methyl]-3-isopropyl-5-methoxy-1-methylpyrazole 4-carboxamide]",–,–,-31%,–,-33%,1.0,> 80 mg/kg,-12%
CCN1CCCC1CNC(=O)c1c(C)nn(C(C)C)c1O (centres unmarked) [IV],–,–,+35%,–,+28%,2.2,> 80 mg/kg,-18%
"CCN1CCCC1CNC(=O)c1cc(S(N)(=O)=O)ccc1OC (centres unmarked) [Sulpiride, reference compound]",–,–,+27%,–,+21%,3.0,> 80 mg/kg,0%
"CCN1CCCC1CNC(=O)c1c(C)nn(-c2ccccc2)c1OC (centres unmarked) [V, N-[(1-Ethyl-2-pyrrolidinyl)methyl]-5-methoxy-3-methyl-1-phenyl pyrazole-4-carboxamide]",–,–,-23%,–,-32%,3.3,23.5 mg/kg,-81%
